# Measurements as given in PubChem BioAssay AID342 (DTP/NCI, 2004).
# “And” between values parts separate entries of the source, which are not always exact repeats. Identical values can stand only once.
# Test system: Swiss mice, Sarcoma 180 sc, mean tumor weight T/C
# Test: NCI In Vivo Anticancer Drug Screen. Data for tumor model Sarcoma 180 (subcutaneous) in Swiss mice
# Conditions: endpoint: mean tumor weight, higher = larger tumour
# Summary of the method: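 Readout is the ratio of treated-group measurement to vehicle-control measurement (T/C), based on survival or tumor size in mice carrying transplanted tumors.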
# [1] = dose: 300.0 mg/kg/injection, schedule: Q01DX007 (ip), vehicle: carboxymethylcellulose (CMC)
# [2] = dose: 10.0 mg/kg/injection, schedule: Q01DX007 (ip), vehicle: saline
# [3] = dose: 200.0 mg/kg/injection, schedule: Q01DX007 (ip), vehicle: saline
# [4] = dose: 4.0 mg/kg/injection, schedule: Q01DX007 (ip), vehicle: carboxymethylcellulose (CMC)
# [5] = dose: 2.5 mg/kg/injection, schedule: Q01DX007 (sc), vehicle: steriod suspending solution
# [6] = dose: 5.0 mg/kg/injection, schedule: Q01DX007 (sc), vehicle: steriod suspending solution
# [7] = dose: 10.0 mg/kg/injection, schedule: Q01DX007 (sc), vehicle: steriod suspending solution
smiles,measurement,setting,value
COc1cccc(/C=N\NC(=O)C(C)SC(C)C(=O)N/N=C/c2cccc(OC)c2)c1 (centres undefined),T/C,"dose: 25.0 mg/kg/injection, schedule: Q01DX007 (ip), vehicle: carboxymethylcellulose (CMC)",68 % of control
same,T/C,"dose: 38.0 mg/kg/injection, schedule: Q01DX007 (ip), vehicle: carboxymethylcellulose (CMC)",62 % of control
same,T/C,"dose: 42.0 mg/kg/injection, schedule: Q#A X014 (ip), vehicle: carboxymethylcellulose (CMC)",78 % of control
same,T/C,"dose: 53.0 mg/kg/injection, schedule: Q01DX007 (ip), vehicle: methylcellulose (MC)",77 % of control
same,T/C,"dose: 56.0 mg/kg/injection, schedule: Q01DX007 (ip), vehicle: carboxymethylcellulose (CMC)",35 % of control
same,T/C,"dose: 63.0 mg/kg/injection, schedule: Q#A X014 (ip), vehicle: carboxymethylcellulose (CMC)",79 % of control
same,T/C,"dose: 80.0 mg/kg/injection, schedule: Q01DX007 (ip), vehicle: methylcellulose (MC)",63 % of control
same,T/C,"dose: 95.0 mg/kg/injection, schedule: Q#A X014 (ip), vehicle: carboxymethylcellulose (CMC)",65 % of control
same,T/C,"dose: 120.0 mg/kg/injection, schedule: Q01DX007 (ip), vehicle: methylcellulose (MC)",47 % of control
same,T/C,"dose: 142.5 mg/kg/injection, schedule: Q#A X014 (ip), vehicle: carboxymethylcellulose (CMC)",61 % of control
same,T/C,"dose: 180.0 mg/kg/injection, schedule: Q01DX007 (ip), vehicle: methylcellulose (MC)",59 % of control
same,T/C,"dose: 270.0 mg/kg/injection, schedule: Q01DX007 (ip), vehicle: methylcellulose (MC)",58 % of control
same,T/C,[1],64 % of control
same,T/C,"dose: 400.0 mg/kg/injection, schedule: Q01DX007 (ip), vehicle: carboxymethylcellulose (CMC)",59 % of control
C=C(C)C(=O)O[C@H]1CC2=C[C@@H](C[C@@]3(C)O[C@@H]3[C@H]3OC(=O)C(=C)[C@@H]31)OC2=O,T/C,"dose: 2.5 mg/kg/injection, schedule: Q01DX007 (ip), vehicle: saline",105 % of control
same,T/C,"dose: 5.0 mg/kg/injection, schedule: Q01DX007 (ip), vehicle: saline",106 % of control
same,T/C,[2],100 % of control
CNC(C)C(O)c1ccccc1 (centres undefined),T/C,"dose: 133.0 mg/kg/injection, schedule: Q01DX007 (ip), vehicle: saline",78 % of control
same,T/C,[3],60 % of control
Brc1ccc(-c2csc(Nc3nc(-c4ccc(Br)cc4)cs3)n2)cc1,T/C,"dose: 200.0 mg/kg/injection, schedule: Q01DX007 (ip), vehicle: carboxymethylcellulose (CMC)",56 % of control and 73 % of control
same,T/C,[1],52 % of control and 60 % of control
same,T/C,"dose: 675.0 mg/kg/injection, schedule: Q01DX007 (ip), vehicle: carboxymethylcellulose (CMC)",31 % of control
CC1CN(C(=O)CCl)c2ccccc2N1C(=O)CCl (centres undefined),T/C,"dose: 2.0 mg/kg/injection, schedule: Q01DX007 (ip), vehicle: carboxymethylcellulose (CMC)",121 % of control
same,T/C,[4],114 % of control
O=NN(CCCl)C(=O)NCCCl,T/C,"dose: 1.5 mg/kg/injection, schedule: Q01DX007 (ip), vehicle: saline",27 % of control
same,T/C,"dose: 2.6 mg/kg/injection, schedule: Q01DX007 (ip), vehicle: saline",79 % of control
same,T/C,"dose: 3.0 mg/kg/injection, schedule: Q01DX007 (ip), vehicle: saline",44 % of control
same,T/C,"dose: 3.0 mg/kg/injection, schedule: Q01DX007 (oral), vehicle: carboxymethylcellulose (CMC)",60 % of control
same,T/C,[4],75 % of control
same,T/C,"dose: 4.3 mg/kg/injection, schedule: Q01DX007 (ip), vehicle: saline",90 % of control
same,T/C,"dose: 6.0 mg/kg/injection, schedule: Q01DX007 (ip), vehicle: carboxymethylcellulose (CMC)",46 % of control and 58 % of control
same,T/C,"dose: 6.0 mg/kg/injection, schedule: Q01DX007 (ip), vehicle: saline",47 % of control
same,T/C,"dose: 6.0 mg/kg/injection, schedule: Q01DX007 (oral), vehicle: carboxymethylcellulose (CMC)",32 % of control
same,T/C,"dose: 7.2 mg/kg/injection, schedule: Q01DX007 (ip), vehicle: saline",62 % of control
same,T/C,"dose: 8.0 mg/kg/injection, schedule: Q01DX007 (ip), vehicle: carboxymethylcellulose (CMC)",35 % of control
same,T/C,"dose: 10.0 mg/kg/injection, schedule: Q01DX007 (ip), vehicle: carboxymethylcellulose (CMC)",27 % of control
same,T/C,"dose: 12.0 mg/kg/injection, schedule: Q01DX007 (ip), vehicle: carboxymethylcellulose (CMC)",10 % of control
same,T/C,"dose: 12.0 mg/kg/injection, schedule: Q01DX007 (ip), vehicle: saline",36 % of control and 44 % of control
same,T/C,"dose: 12.0 mg/kg/injection, schedule: Q01DX007 (oral), vehicle: carboxymethylcellulose (CMC)",12 % of control
same,T/C,"dose: 20.0 mg/kg/injection, schedule: Q01DX007 (ip), vehicle: saline",24 % of control
same,T/C,"dose: 24.0 mg/kg/injection, schedule: Q01DX007 (oral), vehicle: carboxymethylcellulose (CMC)",6 % of control
C=CC(CN1CC1)OC(C)=O (centres undefined),T/C,"dose: 0.88 mg/kg/injection, schedule: Q01DX007 (ip), vehicle: carboxymethylcellulose (CMC)",94 % of control
same,T/C,"dose: 1.25 mg/kg/injection, schedule: Q01DX007 (ip), vehicle: carboxymethylcellulose (CMC)",68 % of control
same,T/C,"dose: 1.75 mg/kg/injection, schedule: Q01DX007 (ip), vehicle: carboxymethylcellulose (CMC)",97 % of control
same,T/C,"dose: 2.3 mg/kg/injection, schedule: Q01DX007 (ip), vehicle: carboxymethylcellulose (CMC)",58 % of control
same,T/C,"dose: 3.5 mg/kg/injection, schedule: Q01DX007 (ip), vehicle: carboxymethylcellulose (CMC)",56 % of control
same,T/C,"dose: 7.0 mg/kg/injection, schedule: Q01DX007 (ip), vehicle: carboxymethylcellulose (CMC)",50 % of control
CCC(=O)NC,T/C,"dose: 1000.0 mg/kg/injection, schedule: Q01DX007 (ip), vehicle: other",41 % of control and 63 % of control
same,T/C,"dose: 1250.0 mg/kg/injection, schedule: Q01DX007 (ip), vehicle: other",14 % of control and 33 % of control
CC(/C=N\N=C(N)N)=N/N=C(N)N,T/C,"dose: 42.1 mg/kg/injection, schedule: Q01DX007 (ip), vehicle: carboxymethylcellulose (CMC)",113 % of control
COc1cc(C[C@H]2c3cc(OC)c(OC)cc3CCN2C)c(Oc2cc3c(cc2OC)-c2c(OC)c(OC)cc4c2[C@H](C3)N(C)CC4)cc1OC,T/C,"dose: 7.8 mg/kg/injection, schedule: Q01DX007 (ip), vehicle: saline",96 % of control
same,T/C,"dose: 15.6 mg/kg/injection, schedule: Q01DX007 (ip), vehicle: saline",77 % of control
same,T/C,"dose: 31.3 mg/kg/injection, schedule: Q01DX007 (ip), vehicle: saline",78 % of control
same,T/C,"dose: 62.5 mg/kg/injection, schedule: Q01DX007 (ip), vehicle: saline",57 % of control and 68 % of control
same,T/C,"dose: 125.0 mg/kg/injection, schedule: Q01DX007 (ip), vehicle: saline",63 % of control
COc1ccc2c(c1)CC[C@@H]1[C@@H]2CC[C@]2(C)C=CC[C@@H]12,T/C,[5],104 % of control
same,T/C,[6],91 % of control
same,T/C,[7],75 % of control
C#C[C@]1(OC(C)=O)CC[C@H]2[C@@H]3CC[C@H]4CC=CC[C@]4(C)[C@H]3CC[C@@]21C,T/C,[5],84 % of control
same,T/C,[6],71 % of control
same,T/C,[7],102 % of control
NC(=O)SCC(=O)Nc1ccc2ncccc2c1,T/C,"dose: 42.0 mg/kg/injection, schedule: Q#A X014 (ip), vehicle: methylcellulose (MC)",84 % of control
same,T/C,"dose: 63.5 mg/kg/injection, schedule: Q#A X014 (ip), vehicle: methylcellulose (MC)",76 % of control
same,T/C,"dose: 93.5 mg/kg/injection, schedule: Q#A X014 (ip), vehicle: methylcellulose (MC)",58 % of control
same,T/C,"dose: 140.0 mg/kg/injection, schedule: Q#A X014 (ip), vehicle: methylcellulose (MC)",56 % of control
same,T/C,"dose: 250.0 mg/kg/injection, schedule: Q01DX007 (ip), vehicle: other",87 % of control
same,T/C,"dose: 500.0 mg/kg/injection, schedule: Q01DX007 (ip), vehicle: other",46 % of control
CCC(CC)C(O)CCCN(C)C (centres undefined),T/C,"dose: 100.0 mg/kg/injection, schedule: Q01DX007 (ip), vehicle: saline",103 % of control
same,T/C,[3],95 % of control
same,T/C,"dose: 400.0 mg/kg/injection, schedule: Q01DX007 (ip), vehicle: saline",75 % of control
CCCCN(C)N=Nc1ccc(OCC(=O)OCC)cc1,T/C,"dose: 7.0 mg/kg/injection, schedule: Q01DX007 (ip), vehicle: saline",111 % of control
same,T/C,[2],93 % of control
same,T/C,"dose: 15.0 mg/kg/injection, schedule: Q01DX007 (ip), vehicle: saline",111 % of control
same,T/C,"dose: 23.0 mg/kg/injection, schedule: Q01DX007 (ip), vehicle: saline",95 % of control
